# From PubChem BioAssay (NCI)
#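 A five-concentration, 48-hour dose response in 96-well plates underlies each endpoint, interpolated linearly between surrounding concentrations. GI50 marks 50% less growth. TGI: total growth inhibition.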
# Legend:
# Assay in all cases: NCI tumour cell line growth inhibition, 48 h
# SNB-78 CNS = system: SNB-78 CNS
# DMS 273 small cell lung = system: DMS 273 small cell lung
# DMS 114 small cell lung = system: DMS 114 small cell lung
# M19-MEL melanoma = system: M19-MEL melanoma
# XF 498 CNS = system: XF 498 CNS
# LXFL 529 NSCLC = system: LXFL 529 NSCLC
# HOP-18 NSCLC = system: HOP-18 NSCLC
# SN12K1 renal = system: SN12K1 renal
# P388/ADR leukemia = system: P388/ADR leukemia
# RXF-631 renal = system: RXF-631 renal
# P388 leukemia = system: P388 leukemia
Compound,TGI (SNB-78 CNS),TGI (DMS 273 small cell lung),TGI (DMS 114 small cell lung),TGI (M19-MEL melanoma),TGI (XF 498 CNS),TGI (LXFL 529 NSCLC),TGI (HOP-18 NSCLC),TGI (SN12K1 renal),TGI (P388/ADR leukemia),GI50 (SNB-78 CNS),GI50 (RXF-631 renal),GI50 (HOP-18 NSCLC),GI50 (DMS 273 small cell lung),GI50 (DMS 114 small cell lung),GI50 (M19-MEL melanoma),TGI (P388 leukemia)
Nc1ccc2ncc(Nc3ccc(Cl)c(Cl)c3)nc2c1,74.1 µM,49.5 µM,42.1 µM,47.4 µM,60.8 µM,> 100 µM,,,,,,,,,,
Cc1[nH]n(C(=O)c2ccc(Cl)cc2)c(=O)c1/C=C1\C(O)=CC(=O)c2ccccc21,> 100 µM,,> 100 µM,> 100 µM,> 100 µM,> 100 µM,,,,,,,,,,
COC(=O)c1ccccc1NCc1cc(O)ccc1O,66.6 µM,> 100 µM,,31.7 µM,33.1 µM,32.9 µM,27.6 µM,,,,,,,,,
CN1OC(CO)CC12C1CC3CC(C1)CC2C3 (configuration not stated),,> 100 µM,> 100 µM,> 100 µM,,> 100 µM,> 100 µM,,,,,,,,,
CCCCCCCCCCCC1=C(O)C(=O)C=C(O)C1=O,149 µM,15.7 µM,11.9 µM,,,,14.6 µM,30.3 µM,250 µM,,,,,,,
NS(=O)(=O)C1CCCCC1C(=O)NNC(=O)C(=O)Nc1nc(=S)[nH][nH]1 (configuration not stated),> 100 µM,> 100 µM,> 100 µM,> 100 µM,> 100 µM,> 100 µM,,,,,,,,,,
COC1=C(C)C(=O)C2=C(C1=O)C1C3CC4=C(C(=O)C(OC)=C(C)C4=O)C(CNC(=O)C(C)=O)N3C(C#N)C(C2)N1C (configuration not stated),,,,,,,,,0.349 µM,0.0579 nM,0.000385 µM,0.000212 µM,0.0259 nM,0.0215 nM,0.0946 nM,
NS(=O)(=O)c1cc2c(cc1Cl)NC(C(=O)NNC(=O)c1ccncc1)=NS2(=O)=O,,> 100 µM,> 100 µM,> 100 µM,> 100 µM,> 100 µM,> 100 µM,,,,,,,,,
CCOC(=O)Oc1ccc2[nH]c3c(C)cc(N)c(C)c3c2c1,> 100 µM,> 100 µM,> 100 µM,> 100 µM,> 100 µM,,> 100 µM,,,,,,,,,
CCOC(=O)C1=C(O)c2c(OC)ccc(OC)c2C(=O)C1=O,> 100 µM,> 100 µM,> 100 µM,> 100 µM,> 100 µM,,> 100 µM,,,,,,,,,
O=[N+]([O-])c1cccc2c1[nH]c1c(-c3ccccc3)nccc12,,7.58 µM,5.75 µM,6.14 µM,11.7 µM,,2.82 µM,8.11 µM,11.7 µM,,,,,,,9.75 µM
CC(=O)OCc1cc2c(s1)C(=O)c1sccc1C2=O,28.3 µM,0.299 µM,0.283 µM,,,1 µM,0.276 µM,,,,,,,,,
